# Reference: US10590166B2, “Peptides useable for treating cancer” (Allegro Pharmaceuticals, LLC, priority 2009, dated 2020)
# Values joined by “and” are separate entries in the source; they are usually repeats but may differ in a detail not shown here. Identical values can stand only once. Like-named read-outs stand apart in the source and are kept apart here. Square brackets hold non-standard residues; d marks the D form. Peptide text beside a SMILES is read from it. Cya = N[CH](CS(=O)(=O)O)C(=O)O
# Tests used:
# [1] = tested on: human subjects with diabetic macular edema; assay type: in vivo; settings: for persistence of improvements in BCVA and OCT central macular thickness off treatment: follow up after the last intravitreal treatment
# Protocol: Fifteen human patients with late stage DME received three monthly intravitreal injections of Compound 1 as part of a multiple-injection Phase 1 Human Safety Study. […] While this study was firstly a safety study, efficacy was also assessed. Eight of the patients patients improved three or more lines in BCVA (representing 53% of the treated patients) and four of the patients improved from nearly legally blind to functional vision in the 20/40 to 20/60 range. […] These improvements in BCVA and OCT central macular thickness persisted for 90 days of follow up off treatment.
# The objective of the Phase 1 study was to evaluate the safety and initial efficacy of the ophthalmic intravitreal injection of COMPOUND 1 in human subjects with end stage diabetic macular edema (DME). The primary endpoint of this study was the observation of dose limiting toxicity. A secondary endpoint of this study was observation of a clinical benefit in reducing the diabetic macular edema in BCVA (ETDRS lines) and OCT central macular thickness.
# Fifteen human subjects with chronic end-stage DME completed this open label study. Subjects at enrollment had BCVA of 20/100 or worse primarily due to DME and had not undergone anti-VEGF treatment or focal laser within 90 days prior to enrollment. Many study subjects were refractory to previous Avastin treatments. Study subjects received three monthly intravitreal injections of 2.5 mg COMPOUND 1 and were followed monthly for an additional 3 months. Safety measurements were followed by BCVA, slit lamp evaluation, dilated fundus exam, 10P measurements, OCT, FA, Fundus Photos, B-scan ultrasound, and ERG.
# [2] = tested on: ischemic retinopathy mouse model; experiment: ROP / ischemic retinopathy mouse model, pre-retinal neovascularization; assay type: in vivo
# Protocol: In this Example, Compound 1 was tested in an ischemic retinopathy mouse model to explore the feasibility of suppressing pre-retinal neovascularization.
# Mice that had ischemic retinopathy were injected intravitreously with a single dose of Compound 1 at the concentration of 0.125 μg/1 μL, 12.5 μg/1 μL, 25.0 μg/1 μL and at 50.0 μg/1 μL (Groups B, D, F and H, respectively), as well as a vehicle (BSS) (Controls 1, 2, 3 and 4) on post-natal day 12. On post-natal day 17, 5 days after intravitreal injection, the area of neovascularization was measured by image analysis. FIG. 9 is a bar graph comparing the measured area of neovascularization in mice treated with these varying doces of compound 1 or control (vehicle only).
# [3] = tested on: Pigmented New Zealand Rabbits; experiment: Ocular toxicity dose escalation, multiple intravitreal injections of Compound 1 (Table E); assay type: in vivo; settings: up to 3 intravitreal injections of 2.5, 5.0 or 10.0 mg/100 μL
# [4] = tested on: human umbilical vein endothelial cells (HUVEC); experiment: wound-healing assay with HUVEC on fibronectin coated surface; assay type: cell-based
# Protocol: To test the anti-adhesive properties of RGCysteic Acid peptides in vitro, a wound-healing assay was performed with human umbilical vein endothelial cells (HUVEC). HUVEC were seeded and allowed to grow to a confluent monolayer on a fibronectin coated surface. A wound (a scratch rift) was created by dragging a small pipette tip across the HUVEC monolayer. The cells were then incubated in fresh growth medium containing the RGCysteic Acid peptide (Compound 1; 10 mM), and the wound area was imaged in five different fields at various time points (0, 4, 8, 12, 16, 20, 24 hours) to determine the kinetics of wound closure. The level of wound closure was quantified by determining the fraction of the original wound area that was re-occupied by HUVEC through cellular adhesion, migration and proliferation.
# In control studies, the following peptides were used in place of RGCysteic Acid (Compound 1): cyclic-RGD peptide (1 mM), positive control) and RGE peptide (1 mM, negative control).
# The results are shown as a percentage of the original area. The error bars correspond to the standard deviation in wound size across 2-6 independent trials.
# New Zealand Rabbits = experiment: Ocular toxicity of intravitreal Compound 1 with and without urea (Table A); assay type: in vivo; settings: 24 hour follow up
# [5] = 15 DME patients, three monthly intravitreal injections of 2.5 mg
# [6] = 15 DME patients, three monthly intravitreal injections of 2.5 mg, listed as COMPOUND 1
# [7] = single intravitreal 2.5 mg/100 μL
# [8] = single intravitreal injection, 8 eyes per group
smiles,measurement,setting,value
"CC(O)C(NC(=O)C(CS(=O)(=O)O)NC(=O)CNC(=O)C(CCCNC(=N)N)NC(=O)CN)C(=O)N1CCCC1C(=O)O (stereo not shown) [Compound 1, Glycinyl-Arginyl-Glycinyl-Cysteic-Threonyl-Proline-COOH] (H-GRG[Cya]TP-OH; configuration not given here)",number of patients with no material increase in CMT,[1]; 15 DME patients,7 out of 15 patients
same,number of subjects with no material change in BCVA,[1]; 15 DME patients,7 out of 15 subjects
same,share of treated patients improved three or more lines in BCVA,"[1]; 15 DME patients, by study day 90 after 3 intravitreal injections of 2.5 mg",53%
same,number of patients improved from nearly legally blind to functional vision in the 20/40 to 20/60 range,"[1]; 15 DME patients, three monthly intravitreal injections",four
same,number of patients with reduction in CMT by 30% to 80%,[1]; [5],eight
same,number of subjects improved BCVA by three or more (three to five) lines,[1]; [5],Eight
same,share of subjects with reduction in OCT central macular thickness of at least 30%,[1]; [5],53%
same,number of patients with reduction in CMT by 30% to 80%,[1]; [6],8 out of 15 and 8 of 15 patients
same,number of subjects improved BCVA by three or more (three to five) lines,[1]; [6],8 out of 15 and 8 of 15 subjects
same,maximum reduction in macular edema (OCT),[1]; 608 to 103,505 microns
same,"maximum reduction in macular edema (OCT), relative",[1]; 608 to 103 microns,~80%
same,persistence of improvements in BCVA and OCT central macular thickness off treatment,[1],90 days
same,persistence of improvements in BCVA and OCT central macular thickness off treatment,[1]; listed as COMPOUND 1,at least 90 days
same,ERG changes,[1]; in vivo,No ERG changes
same,corneal decompensation or cataract progression,[1]; in vivo,No corneal decompensation or cataract progression
same,elevations in IOP,[1]; in vivo,No sustained elevations in IOP
same,inflammatory reactions in the anterior chamber or vitreous cavity,[1]; in vivo,no reports of inflammatory reactions
same,retinal tears or retinal detachments,[1]; in vivo,No retinal tears or retinal detachments
same,vascular occlusions,[1]; in vivo,no vascular occlusions
same,size of neovascularization lesions,"[2]; Group B, single intravitreal 0.125 μg/1 μL on post-natal day 12, measured day 17",somewhat smaller
same,size of neovascularization lesions,"[2]; Group D, single intravitreal 12.5 μg/1 μL on post-natal day 12, measured day 17, statistically significant vs control",greatly decreased
same,size of neovascularization lesions,"[2]; Group F, single intravitreal 25.0 μg/1 μL on post-natal day 12, measured day 17, statistically significant vs control",greatly decreased
same,size of neovascularization lesions,"[2]; Group H, single intravitreal 50.0 μg/1 μL on post-natal day 12, measured day 17, statistically significant vs control",greatly decreased
same,"Tonometry, average for treated eyes",[3],12.7 mmHg average
same,Ocular toxicity: RPE toxicity,"[3]; sacrifice Day 7, 37 or 90",No RPE toxicity
same,Ocular toxicity: cataract formation,"[3]; sacrifice Day 7, 37 or 90",No cataract
same,Ocular toxicity: exudates,"[3]; sacrifice Day 7, 37 or 90",No exudates
same,Ocular toxicity: inflammation,"[3]; sacrifice Day 7, 37 or 90",No inflammation
same,Ocular toxicity: retinal hemorrhage,"[3]; sacrifice Day 7, 37 or 90",No retinal
same,"Ocular toxicity: retinal tears, breaks or detachments","[3]; sacrifice Day 7, 37 or 90","No retinal tears,"
same,Ocular toxicity: retinal vascular compromise,"[3]; sacrifice Day 7, 37 or 90",No retinal vascular
same,inhibition of cell adhesion,"[4]; HUVEC wound healing model, in 12 hours",74%
same,inhibition of HUVEC wound healing,"[4]; after 24 hours, Compound 1 10 mM, control peptides 1 mM",70%
same,apoptosis of the HUVEC cells,[4]; wound healing assay,without apoptosis
same,Ocular toxicity: RPE toxicity,New Zealand Rabbits; [7],No RPE toxicity
same,Ocular toxicity: cataract formation,New Zealand Rabbits; [7],No cataract
same,Ocular toxicity: exudates,New Zealand Rabbits; [7],No exudates
same,Ocular toxicity: inflammation,New Zealand Rabbits; [7],No inflammation
same,Ocular toxicity: retinal hemorrhage,New Zealand Rabbits; [7],No retinal
same,"Ocular toxicity: retinal tears, breaks or detachments",New Zealand Rabbits; [7],"No retinal tears,"
same,Ocular toxicity: retinal vascular compromise,New Zealand Rabbits; [7],No retinal
same,Total PVD,New Zealand Rabbits; [8],75% Total PVD
same,Vitreous liquefaction,New Zealand Rabbits; [8],Complete
